Experimental data: paper PMC8885657, “HPV infection alters vaginal microbiome through down-regulating host mucosal innate peptides used by Lactobacilli as amino acid sources” (Nature Communications, 2022)
Where no end group is shown, it is not given here.

Columns and labels:
[1] = test system: Lactobacillus crispatus DSM 20356; assay: Antimicrobial assay (surviving colonies, CFU count); format: cell-based; details: peptides pre-incubated with 2 mM DTT 30 min 37 °C; 6 h with bacteria; n = 6
Experimental: Bacterial strains Lactobacillus crispatus DSM 20356, Lactobacillus iners CIP 105923 and Garnerella vaginalis CCUG 43336 were kindly provided by the Department of Clinical Microbiology at University Hospital Center of Liege. Lactobacillus jensenii LMG 6414 was obtained from BCCM/LMG Bacteria Collection (University of Gent, Belgium). Log-phase bacteria were grown on Columbia agar with 5% sheep blood (Becton Dickinson, Franklin Lakes, NJ, USA) at 37 °C in a humidified CO2 atmosphere (Lactobacilli) or in anaerobic jars (G. vaginalis). To analyze the antimicrobial effect of innate peptides expressed by vaginal/cervical mucosa, 5 × 10^4 colony-forming unit (CFU)/ml were mixed with different peptides (concentration range: 1–10 µg/ml) in 10 mM sodium phosphate buffer (SPB) (final volume 100 µl) and incubated for 45 min to 9 h at 37 °C. Where indicated, the peptides were incubated with 2 mM dithiothreitol (DTT) (Invitrogen, Carlsbad, CA, USA) for 30 min at 37 °C before adding the bacteria. In indicated experiments, incubation was carried out in potassium phosphate buffer (KPB) (pH: 7.4, 10 mM). The following peptides were tested: HβD1 (PeptaNova, Sandhausen, Germany), HβD2 (PeptaNova), HβD3 (PeptaNova), HβD4 (PeptaNova), HD-5 (PeptaNova), HD-6 (PeptaNova), elafin (PeptaNova), S100A7 (Abnova, Taipei City, Taiwan) and SLPI (R&D Systems, Minneapolis, MI, USA). Bacterial suspensions were then plated on Columbia Blood agar plates for 24–48 h to determine CFU. High-resolution images for each condition were taken. Colony detection and counts were finally performed using ImageJ software (NIH, Bethesda, MD, USA) and verified by manual counting.

[2] = test system: defensin/elafin mRNA in immortalized human keratinocytes (HaCaT cells); assay: RT-qPCR of innate peptide expression in non-infected immortalized keratinocytes (TNFα/LPS, siRNA, inhibitors); format: cell-based; details: for Elafin expression / HBD2 expression / HBD3 expression / HBD4 expression: siGL3, TNF alpha +
[3] = test system: innate peptide mRNA (SLPI, S100A7, Elafin, HBD1-4, HD-5, HD-6) in CTRL and E6E7 cells; assay: RT-qPCR of innate peptide expression in CTRL and E6E7 keratinocytes, Control / LPS / TNF alpha (Fig 2D); format: cell-based, human;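 note: mRNA level normalized to HPRT mRNA of the same sample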

“HβD3: epithelial member of the defensin family, host defense peptide (PeptaNova) (GIINTLQKYYCRVRGGRCAVLSCLPKEEQIGKCSTRGRKCCRRKK; not fully specified; ends and bridges not checked; UniProt P81534 23-67, looked up)” was tested, and the “antimicrobial/protective activity in reducing environment” value [1] was “slight increase in the antibacterial activity”.

In the case of TNFα, the “HβD2-4 expression (RT-qPCR)” value ([2]; immortalized keratinocytes, TNFα 20 ng/ml, normalized to HPRT, n = 4) is reported as “highly stimulated”, the Elafin expression ([2]; replicate 1) is reported as 6.99 and the HBD2 expression ([2]; replicate 1) is reported as 14.1. For the same substance, the HBD3 expression ([2]; replicate 1) was 4.31, the HBD4 expression ([2]; replicate 1) was 5.27 and the Elafin expression ([2]; replicate 2) was 3.11. For the same substance, the HBD2 expression ([2]; replicate 2) was 7.45, the HBD3 expression ([2]; replicate 2) was 7.5 and the HBD4 expression ([2]; replicate 2) was 1.23. For the same substance, the Elafin expression ([2]; replicate 3) was 6.23, the HBD2 expression ([2]; replicate 3) was 7.27 and the HBD3 expression ([2]; replicate 3) was 4.03. For the same substance, the HBD4 expression ([2]; replicate 3) was 3.86, the Elafin expression ([3]; CTRL cells, replicate 1) was 5.073 and the HBD1 expression ([3]; CTRL cells, replicate 1) was 0.2367. It also gave an HBD2 expression ([3]; CTRL cells, replicate 1) of 3.658, an HBD3 expression ([3]; CTRL cells, replicate 1) of 3.171 and an HBD4 expression ([3]; CTRL cells, replicate 1) of 2.287. The HD-5 expression ([3]; CTRL cells, replicate 1) was 0.3567, the HD-6 expression ([3]; CTRL cells, replicate 1) was 1.388 and the S100A7 expression ([3]; CTRL cells, replicate 1) was 0.722. The SLPI expression ([3]; CTRL cells, replicate 1) was 0.646, the Elafin expression ([3]; CTRL cells, replicate 2) was 4.065 and the HBD1 expression ([3]; CTRL cells, replicate 2) was 1.168. The HBD2 expression ([3]; CTRL cells, replicate 2) was 4.597, the HBD3 expression ([3]; CTRL cells, replicate 2) was 4.307 and the HBD4 expression ([3]; CTRL cells, replicate 2) was 2.172. The HD-5 expression ([3]; CTRL cells, replicate 2) was 2.274, the HD-6 expression ([3]; CTRL cells, replicate 2) was 2.604 and the S100A7 expression ([3]; CTRL cells, replicate 2) was 0.3271. The SLPI expression ([3]; CTRL cells, replicate 2) was 2.0642, the Elafin expression ([3]; CTRL cells, replicate 3) was 7.706 and the HBD1 expression ([3]; CTRL cells, replicate 3) was 0.2415. For the same substance, the HBD2 expression ([3]; CTRL cells, replicate 3) was 6.118, the HBD3 expression ([3]; CTRL cells, replicate 3) was 2.998 and the HBD4 expression ([3]; CTRL cells, replicate 3) was 5.397. For the same substance, the HD-5 expression ([3]; CTRL cells, replicate 3) was 2.494, the HD-6 expression ([3]; CTRL cells, replicate 3) was 1.116 and the S100A7 expression ([3]; CTRL cells, replicate 3) was 1.785. It also gave an SLPI expression ([3]; CTRL cells, replicate 3) of 1.2988, an Elafin expression ([3]; CTRL cells, replicate 4) of 14.6325 and an HBD1 expression ([3]; CTRL cells, replicate 4) of 1.1843. It also gave an HBD2 expression ([3]; CTRL cells, replicate 4) of 11.5149, an HBD3 expression ([3]; CTRL cells, replicate 4) of 3.1783 and an HBD4 expression ([3]; CTRL cells, replicate 4) of 3.11. For the same substance, the HD-5 expression ([3]; CTRL cells, replicate 4) was 8.229, the HD-6 expression ([3]; CTRL cells, replicate 4) was 1.904 and the S100A7 expression ([3]; CTRL cells, replicate 4) was 0.4855. The SLPI expression ([3]; CTRL cells, replicate 4) was 0.7519, the Elafin expression ([3]; E6E7 cells, replicate 1) was 0.006506 and the HBD1 expression ([3]; E6E7 cells, replicate 1) was 0.08614. For the same substance, the HBD2 expression ([3]; E6E7 cells, replicate 1) was 2.123, the HBD3 expression ([3]; E6E7 cells, replicate 1) was 0.6511 and the HBD4 expression ([3]; E6E7 cells, replicate 1) was 0.3771. For the same substance, the HD-5 expression ([3]; E6E7 cells, replicate 1) was 0.1042, the HD-6 expression ([3]; E6E7 cells, replicate 1) was 1.213 and the S100A7 expression ([3]; E6E7 cells, replicate 1) was 1.453e-5. For the same substance, the SLPI expression ([3]; E6E7 cells, replicate 1) was 0.0293, the Elafin expression ([3]; E6E7 cells, replicate 2) was 0.03758 and the HBD1 expression ([3]; E6E7 cells, replicate 2) was 0.1065. For the same substance, the HBD2 expression ([3]; E6E7 cells, replicate 2) was 0.4899, the HBD3 expression ([3]; E6E7 cells, replicate 2) was 2.311 and the HBD4 expression ([3]; E6E7 cells, replicate 2) was 0.789. For the same substance, the HD-5 expression ([3]; E6E7 cells, replicate 2) was 1.126, the HD-6 expression ([3]; E6E7 cells, replicate 2) was 0.08436 and the S100A7 expression ([3]; E6E7 cells, replicate 2) was 1.453e-5. The SLPI expression ([3]; E6E7 cells, replicate 2) was 0.1199, the Elafin expression ([3]; E6E7 cells, replicate 3) was 0.01347 and the HBD1 expression ([3]; E6E7 cells, replicate 3) was 0.06181. For the same substance, the HBD2 expression ([3]; E6E7 cells, replicate 3) was 2.314, the HBD3 expression ([3]; E6E7 cells, replicate 3) was 0.09282 and the HBD4 expression ([3]; E6E7 cells, replicate 3) was 1.611. The HD-5 expression ([3]; E6E7 cells, replicate 3) was 0.8629, the HD-6 expression ([3]; E6E7 cells, replicate 3) was 0.3418 and the S100A7 expression ([3]; E6E7 cells, replicate 3) was 8.731e-6. The SLPI expression ([3]; E6E7 cells, replicate 3) was 0.005195, the Elafin expression ([3]; E6E7 cells, replicate 4) was 0.01173 and the HBD1 expression ([3]; E6E7 cells, replicate 4) was 0.009073. The HBD2 expression ([3]; E6E7 cells, replicate 4) was 0.5342, the HBD3 expression ([3]; E6E7 cells, replicate 4) was 0.8751 and the HBD4 expression ([3]; E6E7 cells, replicate 4) was 0.9721. It also gave an HD-5 expression ([3]; E6E7 cells, replicate 4) of 1.847, an HD-6 expression ([3]; E6E7 cells, replicate 4) of 0.557 and an S100A7 expression ([3]; E6E7 cells, replicate 4) of 8.0162e-6. It also gave an SLPI expression ([3]; E6E7 cells, replicate 4) of 0.029.
